Results published in PubChem BioAssay AID743395 (Broad Institute, 2014).

test system: HepG2 viability, CellTiter-Glo ATP luminescence, 72 h; assay: HepG2 cell cytotoxicity, dose response, cytotoxicity control, CellTiter-Glo luminescence, cherry-pick, set 2 (AID 743395)

Structure (SMILES) | AC35 [µM]
CCOc1cc(/C=N/NC(=O)N/N=C/c2ccc(O)c(OCC)c2)ccc1O | 20
COCC(=O)N1CC2(CCN(Cc3ccccc3)CC2)c2c([nH]c3cc(OC)ccc23)[C@H]1CO | 5.27
Cc1cc(NCc2ccccn2)n2nc(C)c(-c3ccccc3)c2n1 | 10
CC(C)Oc1ncnc2c1[nH]c1ccccc12 | 8.5
CC(=O)Nc1cccc(-c2ccnc3c2CC(C)(C(=O)Nc2ccc4c(c2)OCO4)O3)c1 (configuration not stated) | 17.4
O=C(Nc1ccccc1)N1CCCCN2[C@@H](CO)[C@H](c3ccc(C#Cc4ccccc4)cc3)[C@@H]2C1 | 10.9
CCCn1c(CN2CCN(C(=O)OCC)CC2)nc2cc(NC(=O)CC)ccc21 | 18.9
CCOc1ccc2[nH]c(C(=O)N/N=C/c3ccc(OC)cc3)cc2c1 | 4.77
CCc1ccc(N2CC(C(=O)Nc3ccccc3N3CCCC3)CC2=O)cc1 (configuration not stated) | 10.8
CCc1c(C)nc2ncnn2c1NCCc1ccc(OC)cc1 | 11.5
COC(=O)c1cc(C(=O)N2CCN(c3cccc(Cl)c3)CC2)cc([N+](=O)[O-])c1 | 14.1
COc1ccc(-c2ccc3c(c2)[C@H]2[C@H](CCN2S(=O)(=O)c2ccc(OC)cc2)[C@H](CO)N3C)cc1 | 6.5
CC(=NNC(=S)N1CCCCC1)c1cccc(C)n1 | 15.6
Cc1ccc(S(=O)(=O)Nc2ccc3c(c2)CC(=O)N([C@@H](C)CO)C[C@@H](C)[C@@H](CN(C)Cc2ccc(Cl)c(Cl)c2)O3)cc1 | 10.3
Oc1ccc2ccccc2c1C=NNc1ccccn1 | 7.59
O=[N+]([O-])c1ccc(/C=C/C2=NN(c3ccccc3)C(c3ccco3)C2)o1 (configuration not stated) | 15.1
CCC(=O)NC(c1ccc(C)cc1)c1ccc2cccnc2c1O (configuration not stated) | 1.42
CC1CCN(C(=O)C2COc3ccccc3O2)CC1 (configuration not stated) | 21.8
C1CCC(C(CC2CCCCN2)C2CCCCC2)CC1 (configuration not stated) | 6.26

Structure (SMILES) | AC35 [µM]
COc1ccc(OC)c(-c2cnc(OC(C)(C)C)nc2OC(C)(C)C)c1 | 19.3
Cc1ccc2nc(-c3ccc4c(c3)OCCO4)cn2c1 | 8.36
COC(C(=O)C(O)C(C)O)C1Cc2cc3cc(OC4CC(OC5CC(O)C(O)C(C)O5)C(O)C(C)O4)c(C)c(O)c3c(O)c2C(=O)C1OC1CC(OC2CC(OC3CC(O)C(OC)C(C)O3)C(O)C(C)O2)C(O)C(C)O1 (configuration not stated) | 0.148
COc1ccc(CCNc2ncnc3c2oc2ccccc23)cc1OC | 11.3
CCOC(=O)c1c(NC(=O)C2c3ccccc3Oc3ccccc32)sc(C(C)=O)c1C | 17.6
CNc1c2cccc(C)c2nc2c(C(=O)NCCN(C)C)cccc12 | 0.428
COc1ccc(/C(C)=N/NC(=O)c2cccc(S(=O)(=O)N3CCCC3)c2)c(O)c1 | 0.944
O=C(N/N=C/c1cccs1)c1cc(C2CC2)nc2ccccc12 | 21.1
Cc1cccc(Nc2nc(N)nc(-c3oc4ccccc4c3C)n2)c1 | 15.4
Cc1ccc(CNC(=O)c2ccc3c(=O)c(O)c(-c4ccc(C)cc4)[nH]c3c2)cc1 | 1.9
COc1ccc(S(=O)(=O)Nc2cccc3ccc(O)cc23)cc1 | 13.8
COc1cc2c(c(Br)c1N)-c1cc(Br)c(N)cc1C2=O | 0.431
CCc1nc(N)nc(N)c1-c1ccc(Cl)c([N+](=O)[O-])c1 | 0.276
NC(=O)N=Nc1c2[nH]c3ccccc3nc-2c2ccccc12 | 16.6
CC1=Nc2cc(C(=O)NCC3CCCO3)ccc2Sc2ccc(Br)cc21 (configuration not stated) | 19.4
CC1=Nc2cc(C(=O)NCC3CCCO3)ccc2Sc2ccc(C)cc21 (configuration not stated) | 13.5
O=c1[nH]c(/C=C/c2ccccc2F)nc2ccccc12 | 9.06
CN(C)CCCNc1c2ccccc2nc2ccccc12 | 0.794
CCOc1ccc(-c2cc(C(=O)N3CCN(c4ccccn4)CC3)c3ccccc3n2)cc1 | 10.9

Structure (SMILES) | AC35 [µM]
COc1cc(OC)cc(C(=O)N[C@H](C(=O)Nc2nc3ccccc3[nH]2)C(C)C)c1 | 10.2
Cc1ccc(C)c(C2NC(=O)c3ccccc3N2)c1 (configuration not stated) | 5.13
Cc1ccc2c(C)c3ccc4ccccc4c3c[n+]2c1 | 5.47
c1ccc2c(c1)C1=NCCN1c1ccccc1-2 | 3.01
CCOC(=O)c1c(NC(=O)C(=O)N/N=C/c2ccccc2O)sc2c1CCCCC2 | 13.7
N#CC1=C(N)Oc2c(ccc3cccnc23)C1c1ccccc1 (configuration not stated) | 6.64
CCN(CC)CCC(=O)Nc1cccc2c1C(=O)c1ccccc1C2=O | 6.39
C[C@H](CO)N1C[C@H](C)[C@H](CN(C)C(=O)NC2CCCCC2)Oc2cc(C#Cc3cccc(F)c3)ccc2S1(=O)=O | 10.9
COc1cc(OC)cc(-c2cc3ccc(OC)cc3cn2)c1 | 4.68
O=C(N/N=C/c1c(O)ccc2ccccc12)c1ccc(Br)o1 | 1.18
Cn1nccc1C(=O)N/N=C/c1c(O)ccc2ccccc12 | 4.13
CCN(CC)CCn1nc2c3c(cccc3c1=O)-c1ccccc1-2 | 2.82
CC(C)CN(CCCNC(=O)CN1C(=O)CSc2ccc(S(=O)(=O)N3CCOCC3)cc21)CC(C)C | 6.21
CC(C)CC#Cc1ccc([C@@H]2[C@@H](CO)N3CCCCN(C(=O)NC4CCCC4)C[C@H]23)cc1 | 9.9
COc1cc(C2CC(=O)N(c3ccc(C)cc3)C(=O)C2)cc(OC)c1OC | 10.7
C=CCCC(=O)Nc1nc(C)c(-c2csc(Nc3cc(OC)ccc3OC)n2)s1 | 5.68
CCc1ccc(OCc2n[nH]c(=S)n2C(C)CCCC(C)C)cc1 (configuration not stated) | 13.9
Cc1ccc(-c2nn(-c3ccccc3)cc2C(=O)N2CCN(c3ccccn3)CC2)cc1 | 12.3
CC(=O)Nc1ccc2cc3ccc(NC(C)=O)cc3nc2c1 | 11.6
